The test system of assay [1] is Acinetobacter baumannii/haemolyticus: Multidrug-resistant clinical isolate AB-3167. The assay is described as follows: MIC determination (CLSI), AB-3167. In kind it is cell-based. Conditions: overnight incubation, duplicate, lower of the two values reported. As to the method: (§1) The in vitro antibacterial activity of compounds described in the Examples was evaluated by minimum inhibitory concentration (MIC) testing according to Clinical and Laboratory Standards Institute (CLSI). See: Clinical and Laboratory Standards Institute. Methods for Dilution Antimicrobial Susceptibility Tests for Bacteria that Grow Aerobically; Approved Standard-Eighth Edition. CLSI document M7-A8 [ISBN 1-56238-689-1]. Clinical and Laboratory Standards Institute, 940 West Valley Road, Suite 1400, Wayne, Pa. 19087-1898 USA, 2006; also Clinical and Laboratory Standards Institute. Performance Standards for Antimicrobial Susceptibility Testing; Twentieth Informational Supplement. CLSI document M100-S20 [ISBN1-56238-716-2]. Clinical and Laboratory Standards Institute.
(§2) The MIC determination is a standard laboratory method for evaluating the antibacterial activity of a compound. The MIC represents the lowest drug concentration that inhibits visible growth of bacteria following overnight incubation. […] Typically, the drug concentration range is broken down into 2-fold increments (e.g., 0.06 μg/mL, 0.12 μg/mL. 0.25 μg/mL, 0.50 μg/mL, 1.0 μg/mL, etc.) and the various drug concentrations are all individually incubated overnight with approximately the same number of bacteria. The MIC is then determined by visually inspecting the drug effect at each concentration, and identifying the lowest drug concentration that has inhibited bacterial growth as compared to the drug free control. Typically, bacteria continue to grow at drug concentrations lower than the MIC and don't grow at concentrations at and above the MIC.
(§3) The MIC values described in Tables 4 and 5 below were derived from assays wherein each test compound was evaluated in duplicate. In cases where the duplicate values varied by 0-2-fold, the lower of the two values was reported below. Generally speaking, if the duplicate values varied by more than 2-fold, the assay was considered non-valid and was repeated until the variation between duplicate runs was 2-fold. In line with the CLSI guidelines referred to above, both control organisms and reference compounds were utilized in each MIC assay to provide proper quality control. MIC values generated with these control organisms and reference compounds were required to fall within a defined range for the assay to be considered valid and be included herein. Those skilled in the art will recognize that MIC values can and do vary from experiment to experiment. Generally speaking, it should be recognized that MIC values often vary +/−2-fold from experiment to experiment. While a single MIC is reported for each compound and each microorganism, the reader should not conclude that each compound was only tested once. Several of the compounds were subjected to multiple tests. The data reported in Tables 4 and 5 is reflective of the compound's relative activity and different MICs may have been generated on these occasions in line with the guidelines described above.
(§4) The following bacterial strains were used in these MIC determinations:
3) Acinetobacter baumannii/haemolyticus: Multidrug-resistant clinical isolate labeled as AB-3167 in Tables 4 and 5;

The test system of assay [2] is Pseudomonas aeruginosa UC12120 (mouse virulent). The assay is described as follows: MIC determination (CLSI), PA-UC12120. The note with it: UC12120, read-out: PA-UC12120 MIC. The class given is cell-based. The procedure:
as §1, §2, §3, §4
1) Pseudomonas aeruginosa UC12120 (mouse virulent) labeled as PA-UC12120 in Tables 4 and 5;

Assay [3] has as its system Escherichia coli EC-1: VOGEL, mouse virulent. The assay is described as follows: MIC determination (CLSI), EC-1. The class given is cell-based. Conditions: read-out: EC-1 MIC. The procedure:
as §1, §2, §3, §4
2) Escherichia coli EC-1: VOGEL, mouse virulent labeled as EC-1 in Tables 4 and 5;

In assay [4] the target is T1, Pseudomonas aeruginosa LpxC enzyme (Pseudomonas aeruginosa, UniProt P47205).
T1 construct: made in house; host or cells: E. coli
T1 sequence (P47205 1-303): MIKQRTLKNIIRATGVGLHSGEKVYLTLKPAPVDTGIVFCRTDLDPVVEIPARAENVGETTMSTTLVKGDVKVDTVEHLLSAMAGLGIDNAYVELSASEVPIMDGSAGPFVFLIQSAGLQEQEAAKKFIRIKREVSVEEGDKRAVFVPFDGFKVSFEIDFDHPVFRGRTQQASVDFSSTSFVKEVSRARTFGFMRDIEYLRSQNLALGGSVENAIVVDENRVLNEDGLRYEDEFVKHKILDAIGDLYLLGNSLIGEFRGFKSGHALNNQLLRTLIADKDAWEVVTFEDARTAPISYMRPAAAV
The assay is described as follows: LpxC enzyme IC50 assay (PA LpxC enzyme IC50), BioTrove RapidFire mass spectrometry. The class given is biochemical. As to the method:
In order to assess the compounds biological activity selected in vitro assays were conducted on selected compounds. One of the assays measured the compounds ability to disrupt the synthesis of lipopolysaccharide, LPS, which is a component of the outer membrane of Gram-negative bacteria. Disruption of this synthesis is lethal to the bacteria. The assay determined the compound's ability to inhibit LpxC, which is the first enzyme in the biosynthetic pathway for LPS (measured as IC50). Additionally, MICs (minimal inhibitory concentrations) were determined for several bacteria. The specific protocols are described below:
A) IC50 Assay LpxC Enzyme from P. aeruginosa Labeled as PA LpxC Enzyme IC50):
At the end of 1 hour, 5 ul of 1 N HCl was added to stop the enzyme reaction, the plates were centrifuged, and then processed with the BioTrove Rapidfire HTMS Mass Spectrometry System. A no-enzyme control was used in calculating the IC50 values from the percent conversion values.

The mark [5] stands for this setting: P. aeruginosa LpxC enzyme 0.1 nM, 25° C., 1 hour, pH 8.0, read-out: PA:IC50.

≈ marks a conversion by molar mass, not a printed value. Like-named read-outs stand apart in the source and are kept apart here.

For `CCc1ccc(-c2cc(CCC(C)(C(=O)NO)S(C)(=O)=O)on2)s1` (racemic) [Example 7, 4-[3-(5-ethyl-2-thienyl)isoxazol-5-yl]-N-hydroxy-2-methyl-2-(methylsulfonyl)butanamide], the MIC (as a rule, the smallest concentration in the dilution series that meets the test's criterion for growth inhibition) in assay [1] came out at 64 mg/L (≈ 172 µM); in assay [2], 0.5 mg/L (≈ 1.34 µM); in assay [3], 4 mg/L (≈ 10.7 µM). Besides, the IC50 (in general, the concentration needed to halve the response being measured) in assay [4] (setting [5]) amounted to 1.1 nM.

Turning to `CC(CCc1cc(-c2ccccc2F)on1)(C(=O)NO)S(C)(=O)=O` (racemic) [Example 8, 4-[5-(2-fluorophenyl)isoxazol-3-yl]-N-hydroxy-2-methyl-2-(methylsulfonyl)butanamide], the MIC in assay [1] is over 64 mg/L; in assay [2], 1 mg/L (≈ 2.81 µM); in assay [3], 16 mg/L (≈ 44.9 µM). The same compound had an IC50 in assay [4] of 8.3 nM.

Take `CC(CCc1cc(COCc2ccccc2)on1)(C(=O)NO)S(C)(=O)=O` (racemic) [Example 9, 4-{5-[(benzyloxy)methyl]isoxazol-3-yl}-N-hydroxy-2-methyl-2-(methylsulfonyl)butanamide]: the MIC in assay [1] was over 64 mg/L; in assay [2], 8 mg/L (≈ 20.9 µM); in assay [3], over 64 mg/L. The IC50 in assay [4] (setting [5]) is 25.1 nM.

`CC(CCc1cc(-c2c(Cl)cccc2Cl)on1)(C(=O)NO)S(C)(=O)=O` (racemic) [Example 10, 4-[5-(2,6-dichlorophenyl)isoxazol-3-yl]-N-hydroxy-2-methyl-2-(methylsulfonyl)butanamide]: the values for the MIC in assay [1], in assay [2] and in assay [3] were over 64 mg/L, 64 mg/L (≈ 157 µM) and 8 mg/L (≈ 19.6 µM), respectively. Moreover, the IC50 in assay [4] (setting [5]) amounted to 10.5 nM.

For `COc1ccc(C(=O)NCc2cc(CCC(C)(C(=O)NO)S(C)(=O)=O)no2)cc1` (racemic) [Example 11, N-({3-[4-(hydroxyamino)-3-methyl-3-(methylsulfonyl)-4-oxobutyl]isoxazol-5-yl}methyl)-4-methoxybenzamide], the MIC in assay [1], in assay [2] and in assay [3] was over 64 mg/L throughout.

Turning to `Cc1cccc(-c2cc(CCC(C)(C(=O)NO)S(C)(=O)=O)no2)c1` (racemic) [Example 13, N-hydroxy-2-methyl-4-[5-(3-methylphenyl)isoxazol-3-yl]-2-(methylsulfonyl)butanamide], the MIC amounted to 64 mg/L (≈ 182 µM) in assay [1], 1 mg/L (≈ 2.84 µM) in assay [2] and 32 mg/L (≈ 90.8 µM) in assay [3].

As for `CC(CCc1cc(CCCCCCCCCO)on1)(C(=O)NO)S(C)(=O)=O` (racemic) [Example 15, N-hydroxy-4-[5-(9-hydroxynonyl)isoxazol-3-yl]-2-methyl-2-(methylsulfonyl)butanamide], the figures for the MIC in assay [1], in assay [2] and in assay [3] were over 64 mg/L, 4 mg/L (≈ 9.89 µM) and 16 mg/L (≈ 39.6 µM), respectively.

As for `CC(CCc1cc(CN(CCOc2ccccc2)C2CC2)on1)(C(=O)NO)S(C)(=O)=O` (racemic) [Example 18, 4-(5-{[cyclopropyl(2-phenoxyethyl)amino]methyl}isoxazol-3-yl)-N-hydroxy-2-methyl-2-(methylsulfonyl)butanamide], the MIC in assay [1], in assay [2] and in assay [3] was over 64 mg/L throughout.

On to `COc1ccccc1SCc1cc(CCC(C)(C(=O)NO)S(C)(=O)=O)no1` (racemic) [Example 19, N-hydroxy-4-(5-{[(2-methoxyphenyl)thio]methyl}isoxazol-3-yl)-2-methyl-2-(methylsulfonyl)butanamide], for which the values for the MIC in assay [1], in assay [2] and in assay [3] were over 64 mg/L, 64 mg/L (≈ 154 µM) and over 64 mg/L, respectively.

`CC(CCc1cc(-c2ccc(Cl)c(Cl)c2)on1)(C(=O)NO)S(C)(=O)=O` (racemic) [Example 20, 4-[5-(3,4-dichlorophenyl)isoxazol-3-yl]-N-hydroxy-2-methyl-2-(methylsulfonyl)butanamide]: the MIC in assay [1] stood at 16 mg/L (≈ 39.3 µM); in assay [2] it was 1 mg/L (≈ 2.46 µM); in assay [3], 4 mg/L (≈ 9.82 µM).

With `CC(CCc1cc(COc2ccc3c(c2)OCO3)on1)(C(=O)NO)S(C)(=O)=O` (racemic) [Example 26, 4-{5-[(1,3-benzodioxol-5-yloxy)methyl]isoxazol-3-yl}-N-hydroxy-2-methyl-2-(methylsulfonyl)butanamide], the MIC in assay [1] was over 64 mg/L; in assay [2], 4 mg/L (≈ 9.7 µM); in assay [3], 16 mg/L (≈ 38.8 µM).

With `CC(CCc1cc(-c2ccc(F)cc2F)on1)(C(=O)NO)S(C)(=O)=O` (racemic) [Example 28, 4-[5-(2,4-difluorophenyl)isoxazol-3-yl]-N-hydroxy-2-methyl-2-(methylsulfonyl)butanamide], in assay [4] (setting [5]), the IC50 was 2.8 nM.

For the compound `COc1cccc(-c2cc(CCC(C)(C(=O)NO)S(C)(=O)=O)no2)c1` (racemic) [Example 29, N-hydroxy-4-[5-(3-methoxyphenyl)isoxazol-3-yl]-2-methyl-2-(methylsulfonyl)butanamide], the MIC in assay [1] is over 64 mg/L; in assay [2] it was 8 mg/L (≈ 21.7 µM); in assay [3], 64 mg/L (≈ 174 µM).

On to `CC(CCc1cc(-c2cnc3ccccc3c2)no1)(C(=O)NO)S(C)(=O)=O` (racemic) [Example 40, N-hydroxy-2-methyl-2-(methylsulfonyl)-4-(3-quinolin-3-ylisoxazol-5-yl)butanamide], for which, in assay [4] (setting [5]), the IC50 was 25.2 nM.

`CC(CCc1cc(C(=O)NC2CCCCC2)no1)(C(=O)NO)S(C)(=O)=O` (racemic) [Example 45, N-cyclohexyl-5-[4-(hydroxyamino)-3-methyl-3-(methylsulfonyl)-4-oxobutyl]isoxazole-3-carboxamide]: the MIC in assay [1], in assay [2] and in assay [3] was over 64 mg/L each time.

Regarding `CC(CCc1cc(-c2ccnc3ccccc23)no1)(C(=O)NO)S(C)(=O)=O` (racemic) [Example 46, N-hydroxy-2-methyl-2-(methylsulfonyl)-4-(3-quinolin-4-ylisoxazol-5-yl)butanamide], the IC50 in assay [4] (setting [5]) was determined as 5.4 nM.

With `CC(CCc1cc(-c2ccc(F)cc2F)no1)(C(=O)NO)S(C)(=O)=O` (racemic) [Example 50, 4-[3-(2,4-difluorophenyl)isoxazol-5-yl]-N-hydroxy-2-methyl-2-(methylsulfonyl)butanamide], the MIC in assay [1] is over 64 mg/L; in assay [2] it was 1 mg/L (≈ 2.67 µM); in assay [3], 16 mg/L (≈ 42.7 µM).

In the case of `COc1cccc(-c2cc(CC[C@](C)(C(=O)NO)S(C)(=O)=O)no2)c1F` [Example 2, (2R)-4-[5-(2-Fluoro-3-methoxyphenyl)isoxazol-3-yl]-N-hydroxy-2-methyl-2-(methylsulfonyl)butanamide], the minimum inhibitory concentration (MIC) turned out to be 32 mg/L (≈ 82.8 µM) in assay [1], 16 mg/L (≈ 41.4 µM) in assay [2] and 16 mg/L (≈ 41.4 µM) in assay [3].

`COc1ccc(-c2cc(CC[C@](C)(C(=O)NO)S(C)(=O)=O)no2)c(F)c1` [Example 5, (2R)-4-[5-(2-fluoro-4-methoxyphenyl)isoxazol-3-yl]-N-hydroxy-2-methyl-2-(methylsulfonyl)butanamide]: the MIC in assay [1] was over 64 mg/L; in assay [2], 0.25 mg/L (≈ 0.647 µM); in assay [3] it was 4 mg/L (≈ 10.4 µM).

The values are drawn from patent publication US8748466B2, “Isoxazole derivatives useful as antibacterial agents” (Pfizer Inc., priority 2011, dated 2014).
